For data set [1], the system named is ovary cancer and cancers of thymus and others. The note with it: cited from earlier work.
Data set [2] in a line: solubility in physiological saline. Type of data set: physicochemical. The procedure:
Solubility: 5 mg/ml (physiological saline)
In the tables, solubility means a solubility in physiological saline.

The subject of the next data set is BDF1 mice. The data set can be described thus: toxicity, intraperitoneal administration to BDF1 mice, 20 days observation. Type of data set: in vivo, mouse. The note with it: 25 mg/kg, 4 times once a day, observed for 20 days. The text has this: Further, the taxol derivative of the present invention or a pharmaceutically acceptable salt thereof has low toxicity and high water solubility.

Another data set deals with various kinds of cancers. The note with it: cited from earlier work.
The conditions of data set [3]: cited from earlier work.
Where [4] appears, read: methanesulfonate, medium not printed at the place.

In brackets after ≈: the same amount, converted by molar mass.

The source of these data is patent US5677470A, “Baccatin derivatives and processes for preparing the same” (Tanabe Seiyaku Co., Ltd., priority 1994, dated 1997).

Take `CC(=O)O[C@@]12CO[C@@H]1C[C@H](O)[C@@]1(C)C(=O)[C@H](O)C3=C(C)[C@@H](OC(=O)[C@H](O)[C@@H](NC(=O)OC(C)(C)C)c4ccccc4)C[C@@](O)([C@@H](OC(=O)c4ccccc4)[C@H]21)C3(C)C` [4α-acetoxy-2α-benzoyloxy-5β,20-epoxy-1β,7β,10β-trihydroxy-13α-[(2R,3S)-3-phenyl-3-(t-butoxycarbonylamino)-2-hydroxypropionyloxy]-tax-11-en-9-one]: the antitumor activities entry in data set [1] is “excellent antitumor activities”.

With `CCOC(=O)[C@@H](N)CC(=O)OCC(=O)O[C@@H](C(=O)O[C@H]1C[C@@]2(O)[C@@H](OC(=O)c3ccccc3)[C@@H]3[C@]4(OC(C)=O)CO[C@@H]4C[C@H](O)[C@@]3(C)C(=O)[C@H](O)C(=C1C)C2(C)C)[C@@H](NC(=O)OC(C)(C)C)c1ccccc1` [Example 32, 4α-acetoxy-13α-{(2R,3S)-3-tert-butoxycarbonylamino-2-[((3S)-3-amino-3-ethoxycarbonylpropionyloxy)acetoxy]-3-phenylpropionyloxy}-2α-benzoyloxy-5β,20-epoxy-1β,7β,10β-trihydroxytax-11-en-9-one.methanesulfonate], the solubility in data set [2] (setting [4]) and in data set [2] (physiological saline) was 5000 µg/mL each time. Moreover, the death entry in the data set with BDF1 mice is recorded as “no case of death was observed”.

`CC(=O)O[C@@]12CO[C@@H]1C[C@H](O)[C@@]1(C)C(=O)[C@H](O)C3=C(C)[C@@H](OC(=O)[C@H](OC(=O)COC(=O)[C@@H]4CCCN4)[C@@H](NC(=O)OC(C)(C)C)c4ccccc4)C[C@@](O)([C@@H](OC(=O)c4ccccc4)[C@H]21)C3(C)C` [Example 33] had a solubility in data set [2] (physiological saline) of 1400 µg/mL (≈ 1450 µM).

`CC(=O)O[C@@]12CO[C@@H]1C[C@H](O)[C@@]1(C)C(=O)[C@H](O)C3=C(C)[C@@H](OC(=O)[C@H](OC(=O)COC(=O)CNC(=O)CN)[C@@H](NC(=O)OC(C)(C)C)c4ccccc4)C[C@@](O)([C@@H](OC(=O)c4ccccc4)[C@H]21)C3(C)C` [Example 34] registered a solubility in data set [2] (physiological saline) of 10000 µg/mL (≈ 10200 µM).

With `COCCOC(=O)[C@@H](N)CC(=O)OCC(=O)O[C@@H](C(=O)O[C@H]1C[C@@]2(O)[C@@H](OC(=O)c3ccccc3)[C@@H]3[C@]4(OC(C)=O)CO[C@@H]4C[C@H](O)[C@@]3(C)C(=O)[C@H](O)C(=C1C)C2(C)C)[C@@H](NC(=O)OC(C)(C)C)c1ccccc1` [Example 35, 4α-acetoxy-13α-{(2R,3S)-3-tert-butoxycarbonylamino-2-[((3S)-3-amino-3-(2-methoxyethoxycarbonyl)propionyloxy)acetoxy]-3-phenylpropionyloxy}-2α-benzoyloxy-5β,20-epoxy-1β,7β,10β-trihydroxytax-11-en-9-one.methanesulfonate], the solubility in data set [2] (setting [4]) and in data set [2] (physiological saline) was 10000 µg/mL each time. For the same molecule, in the data set with BDF1 mice, the death entry is reported as “no case of death was observed”.

For `CC(=O)O[C@@]12CO[C@@H]1C[C@H](O)[C@@]1(C)C(=O)[C@H](O)C3=C(C)[C@@H](OC(=O)[C@H](OC(=O)COC(=O)[C@H](C)N)[C@@H](NC(=O)OC(C)(C)C)c4ccccc4)C[C@@](O)([C@@H](OC(=O)c4ccccc4)[C@H]21)C3(C)C` [Example 36], in data set [2] (physiological saline), the solubility was 2000 µg/mL (≈ 2130 µM).

`CCOC(=O)[C@@H](N)CC(=O)OCCCCC(=O)O[C@@H](C(=O)O[C@H]1C[C@@]2(O)[C@@H](OC(=O)c3ccccc3)[C@@H]3[C@]4(OC(C)=O)CO[C@@H]4C[C@H](O)[C@@]3(C)C(=O)[C@H](O)C(=C1C)C2(C)C)[C@@H](NC(=O)OC(C)(C)C)c1ccccc1` [Example 37] had a solubility in data set [2] (physiological saline) of 1000 µg/mL (≈ 951 µM).

`CC(=O)O[C@@]12CO[C@@H]1C[C@H](O)[C@@]1(C)C(=O)[C@H](O)C3=C(C)[C@@H](OC(=O)[C@H](OC(=O)COC(=O)CCN)[C@@H](NC(=O)c4ccccc4)c4ccccc4)C[C@@](O)([C@@H](OC(=O)c4ccccc4)[C@H]21)C3(C)C` [Example 38] came in with a solubility in data set [2] (physiological saline) of 1000 µg/mL (≈ 1060 µM).

Take `CCOC(=O)[C@@H](N)CC(=O)OCC(=O)O[C@@H](C(=O)O[C@H]1C[C@@]2(O)[C@@H](OC(=O)c3ccccc3)[C@@H]3[C@]4(OC(C)=O)CO[C@@H]4C[C@H](O)[C@@]3(C)C(=O)[C@H](O)C(=C1C)C2(C)C)[C@@H](NC(=O)c1ccco1)c1ccccc1` [Example 40]: the solubility in data set [2] (physiological saline) was found to be 6000 µg/mL (≈ 5980 µM).

Consider `CCOC(=O)[C@@H](N)CC(=O)OCC(=O)O[C@@H](C(=O)O[C@H]1C[C@@]2(O)[C@@H](OC(=O)c3ccccc3)[C@@H]3[C@]4(OC(C)=O)CO[C@@H]4C[C@H](O)[C@@]3(C)C(=O)[C@H](O)C(=C1C)C2(C)C)[C@@H](NC(=O)c1cccs1)c1ccccc1` [Example 41], for which the solubility in data set [2] (physiological saline) came out at 700 µg/mL (≈ 687 µM).

`CCOC(=O)[C@@H](N)CC(=O)OCC(=O)O[C@@H](C(=O)O[C@H]1C[C@@]2(O)[C@@H](OC(=O)c3ccccc3)[C@@H]3[C@]4(OC(C)=O)CO[C@@H]4C[C@H](O)[C@@]3(C)C(=O)[C@H](O)C(=C1C)C2(C)C)[C@@H](NC(=O)CCCCCl)c1ccccc1` [Example 42]: the solubility in data set [2] (physiological saline) stood at 5000 µg/mL (≈ 4870 µM).

In the case of `CCOC(=O)[C@@H](N)CC(=O)OCC(=O)O[C@@H](C(=O)O[C@H]1C[C@@]2(O)[C@@H](OC(=O)c3ccccc3)[C@@H]3[C@]4(OC(C)=O)CO[C@@H]4C[C@H](O)[C@@]3(C)C(=O)[C@H](O)C(=C1C)C2(C)C)[C@@H](NC(=O)c1cc(OC)ccc1OC)c1ccccc1` [Example 43], the solubility in data set [2] (physiological saline) worked out at 500 µg/mL (≈ 466 µM).

As for `CCOC(=O)N[C@@H](c1ccccc1)[C@@H](OC(=O)COC(=O)C[C@H](N)C(=O)OCC)C(=O)O[C@H]1C[C@@]2(O)[C@@H](OC(=O)c3ccccc3)[C@@H]3[C@]4(OC(C)=O)CO[C@@H]4C[C@H](O)[C@@]3(C)C(=O)[C@H](O)C(=C1C)C2(C)C` [Example 44], the solubility in data set [2] (physiological saline) is 4000 µg/mL (≈ 4080 µM).

In the case of `CCOC(=O)[C@@H](N)CC(=O)OCC(=O)O[C@@H](C(=O)O[C@H]1C[C@@]2(O)[C@@H](OC(=O)c3ccccc3)[C@@H]3[C@]4(OC(C)=O)CO[C@@H]4C[C@H](O)[C@@]3(C)C(=O)[C@H](O)C(=C1C)C2(C)C)[C@@H](NC(=O)OCC1C(C)(C)C1(F)F)c1ccccc1` (some centres unmarked) [Example 45], the solubility in data set [2] (physiological saline) was found to be 600 µg/mL (≈ 560 µM).

Molecule `CCOC(=O)[C@@H](N)CC(=O)OCC(=O)O[C@@H](C(=O)O[C@H]1C[C@@]2(O)[C@@H](OC(=O)c3ccccc3)[C@@H]3[C@]4(OC(C)=O)CO[C@@H]4C[C@H](O)[C@@]3(C)C(=O)[C@H](O)C(=C1C)C2(C)C)[C@@H](NC(=O)OCC(F)(F)F)c1ccccc1` [Example 46] showed a solubility in data set [2] (physiological saline) of 5000 µg/mL (≈ 4830 µM).

With `CCOC(=O)[C@@H](N)CC(=O)OCC(=O)O[C@@H](C(=O)O[C@H]1C[C@@]2(O)[C@@H](OC(=O)c3ccccc3)[C@@H]3[C@]4(OC(C)=O)CO[C@@H]4C[C@H](O)[C@@]3(C)C(=O)[C@H](O)C(=C1C)C2(C)C)[C@@H](NC(=O)OCCOC)c1ccccc1` [Example 47], the solubility in data set [2] (physiological saline) was more than 10000 µg/mL.

Turning to `CCOC(=O)[C@@H](N)CC(=O)OCC(=O)O[C@@H](C(=O)O[C@H]1C[C@@]2(O)[C@@H](OC(=O)c3ccccc3)[C@@H]3[C@]4(OC(C)=O)CO[C@@H]4C[C@H](O)[C@@]3(C)C(=O)[C@H](O)C(=C1C)C2(C)C)[C@@H](NC(=O)OCC1CCC1)c1ccccc1` [Example 48], in data set [2] (physiological saline), the solubility came to 1000 µg/mL (≈ 979 µM).

In data set [2] (physiological saline), `CCOC(=O)[C@@H](N)CC(=O)OCC(=O)O[C@@H](C(=O)O[C@H]1C[C@@]2(O)[C@@H](OC(=O)c3ccccc3)[C@@H]3[C@]4(OC(C)=O)CO[C@@H]4C[C@H](O)[C@@]3(C)C(=O)[C@H](O)C(=C1C)C2(C)C)[C@@H](NC(=O)OCC1CC1)c1ccccc1` [Example 49] showed a solubility of 5000 µg/mL (≈ 4960 µM).

In the case of `CCOC(=O)[C@@H](N)CC(=O)OCC(=O)O[C@@H](C(=O)O[C@H]1C[C@@]2(O)[C@@H](OC(=O)c3ccccc3)[C@@H]3[C@]4(OC(C)=O)CO[C@@H]4C[C@H](O)[C@@]3(C)C(=O)[C@H](O)C(=C1C)C2(C)C)[C@@H](NC(=O)OC(C)(C)C)c1ccc(F)cc1F` [Example 52], the solubility in data set [2] (physiological saline) was 1000 µg/mL (≈ 957 µM).

Turning to `CCOC(=O)[C@@H](N)CC(=O)OCC(=O)O[C@@H](C(=O)O[C@H]1C[C@@]2(O)[C@@H](OC(=O)c3ccccc3)[C@@H]3[C@]4(OC(C)=O)CO[C@@H]4C[C@H](O)[C@@]3(C)C(=O)[C@H](O)C(=C1C)C2(C)C)[C@@H](NC(=O)OC(C)(C)C)c1ccc(OC)cc1` [Example 56], the solubility in data set [2] (physiological saline) was determined as 15000 µg/mL (≈ 14400 µM).

The molecule `COCCOC(=O)[C@@H](N)CC(=O)OCC(=O)O[C@@H](C(=O)O[C@H]1C[C@@]2(O)[C@@H](OC(=O)c3ccccc3)[C@@H]3[C@]4(OC(C)=O)CO[C@@H]4C[C@H](O)[C@@]3(C)C(=O)[C@H](O)C(=C1C)C2(C)C)[C@@H](NC(=O)OC(C)(C)C)c1ccc(F)cc1F` [Example 57] displayed a solubility in data set [2] (physiological saline) of 5000 µg/mL (≈ 4650 µM).

In data set [2] (physiological saline), `CCOC(=O)[C@@H](N)CC(=O)OCC(=O)O[C@@H](C(=O)O[C@H]1C[C@@]2(O)[C@@H](OC(=O)c3ccccc3)[C@@H]3[C@]4(OC(C)=O)CO[C@@H]4C[C@H](O)[C@@]3(C)C(=O)[C@H](OC(C)=O)C(=C1C)C2(C)C)[C@@H](NC(=O)c1ccccc1)c1ccccc1` [Example 59, 4α,10β-diacetoxy-13α-{(2R,3S)-3-benzoylamino-2-[((3S)-3-amino-3-ethoxycarbonylpropionyloxy)acetoxy]-3-phenylpropionyloxy}-2α-benzoyloxy-5β,20-epoxy-1β,7β-dihydroxytax-l 1-en-9-one.methanesulfonate] had a solubility of 300 µg/mL.

Consider `CC(=O)O[C@H]1C(=O)[C@@]2(C)[C@H]([C@H](OC(=O)c3ccccc3)[C@]3(O)C[C@H](OC(=O)[C@H](O)[C@@H](NC(=O)c4ccccc4)c4ccccc4)C(C)=C1C3(C)C)[C@]1(OC(C)=O)CO[C@@H]1C[C@@H]2O` [taxol, 4α,10β-diacetoxy-2α-benzoyloxy-5β,20-epoxy-1β,7β-dihydroxy-13α-[(2R,3S)-3-phenyl-3-benzoylamino-2-hydroxypropionyloxy]-tax-11-en-9-one], for which, in the data set on various kinds of cancers, the anti-tumor activity entry is “excellent anti-tumor activity”. The antitumor activities entry in data set [1] was “excellent antitumor activities”. Besides, the water-solubility in data set [3] was not above 4 µg/mL.
